According to article PMC6494879, “Drug resistance emergence in macaques administered cabotegravir long-acting for pre-exposure prophylaxis during acute SHIV infection” (Nature Communications, 2019):

What was measured:
[1] = system: SIV integrase I72T (SIV IN RTV pseudovirus); assay: organism not typed; format: cell-based
[2] = system: RT-SHIV; assay: Plasma SHIV RNA (RT-PCR) in RT-SHIV-infected macaques treated with CAB LA
Method: CAB LA (200 mg/mL injectable stock aqueous suspension) was given at a dose of 50 mg kg^−1 under anesthesia by intramuscular injection into the quadriceps. Volumes greater than 1.0 mL were divided into two injection sites.

C[C@H]1CO[C@@H]2Cn3cc(C(=O)NCc4ccc(F)cc4F)c(=O)c(O)c3C(=O)N12 [CAB, cabotegravir]
EC50 ([1]; HEK293): 960 pM | fold-change relative to wild type integrase ([1]; {}): 0.8 fold | SHIV RNA copies/ml ([2]; macaque 01D520, day 14): 213778 copies/ml | SHIV RNA copies/ml ([2]; macaque 01D520, day 16): 25703 copies/ml | SHIV RNA copies/ml ([2]; macaque 01D520, day 18): 6247 copies/ml | SHIV RNA copies/ml ([2]; macaque 01D520, day 22): 1187 copies/ml | SHIV RNA copies/ml ([2]; macaque 01D520, day 25): 478 copies/ml | SHIV RNA copies/ml ([2]; macaque 01D520, day 29): 2040 copies/ml | SHIV RNA copies/ml ([2]; macaque 01D520, day 32): 390 copies/ml | SHIV RNA copies/ml ([2]; macaque 01D520, day 36): 49 copies/ml | SHIV RNA copies/ml ([2]; macaque 01D520, day 39): 316 copies/ml | SHIV RNA copies/ml ([2]; macaque 01D520, day 43): 144 copies/ml | SHIV RNA copies/ml ([2]; macaque 01D520, day 46): 49 copies/ml | SHIV RNA copies/ml ([2]; macaque 01D520, day 50): 49 copies/ml | SHIV RNA copies/ml ([2]; macaque 01D520, day 53): 71 copies/ml | SHIV RNA copies/ml ([2]; macaque 01D520, day 57): 49 copies/ml | SHIV RNA copies/ml ([2]; macaque 01D520, day 60): 49 copies/ml | SHIV RNA copies/ml ([2]; macaque 01D520, day 64): 49 copies/ml | SHIV RNA copies/ml ([2]; macaque 01D520, day 67): 250 copies/ml | SHIV RNA copies/ml ([2]; macaque 10D181, day 14): 179379 copies/ml | SHIV RNA copies/ml ([2]; macaque 10D181, day 16): 39172 copies/ml | SHIV RNA copies/ml ([2]; macaque 10D181, day 18): 9142 copies/ml | SHIV RNA copies/ml ([2]; macaque 10D181, day 22): 2006 copies/ml | SHIV RNA copies/ml ([2]; macaque 10D181, day 25): 507 copies/ml | SHIV RNA copies/ml ([2]; macaque 10D181, day 29): 2459 copies/ml | SHIV RNA copies/ml ([2]; macaque 10D181, day 32): 444 copies/ml | SHIV RNA copies/ml ([2]; macaque 10D181, day 36): 906 copies/ml | SHIV RNA copies/ml ([2]; macaque 10D181, day 39): 1839 copies/ml | SHIV RNA copies/ml ([2]; macaque 10D181, day 43): 2744 copies/ml | SHIV RNA copies/ml ([2]; macaque 10D181, day 46): 344 copies/ml | SHIV RNA copies/ml ([2]; macaque 10D181, day 50): 294 copies/ml | SHIV RNA copies/ml ([2]; macaque 10D181, day 53): 756 copies/ml | SHIV RNA copies/ml ([2]; macaque 10D181, day 57): 241 copies/ml | SHIV RNA copies/ml ([2]; macaque 10D181, day 60): 971 copies/ml | SHIV RNA copies/ml ([2]; macaque 10D181, day 64): 2139 copies/ml | SHIV RNA copies/ml ([2]; macaque 33996, day 14): 154663 copies/ml | SHIV RNA copies/ml ([2]; macaque 33996, day 16): 9000 copies/ml | SHIV RNA copies/ml ([2]; macaque 33996, day 18): 1964 copies/ml | SHIV RNA copies/ml ([2]; macaque 33996, day 22): 112 copies/ml | SHIV RNA copies/ml ([2]; macaque 33996, day 25): 141 copies/ml | SHIV RNA copies/ml ([2]; macaque 33996, day 29): 25 copies/ml | SHIV RNA copies/ml ([2]; macaque 33996, day 32): 55 copies/ml | SHIV RNA copies/ml ([2]; macaque 33996, day 36): 49 copies/ml | SHIV RNA copies/ml ([2]; macaque 33996, day 39): 49 copies/ml | SHIV RNA copies/ml ([2]; macaque 33996, day 43): 49 copies/ml | SHIV RNA copies/ml ([2]; macaque 33996, day 46): 49 copies/ml | SHIV RNA copies/ml ([2]; macaque 33996, day 50): 49 copies/ml | SHIV RNA copies/ml ([2]; macaque 33996, day 53): 49 copies/ml | SHIV RNA copies/ml ([2]; macaque 33996, day 57): 49 copies/ml | SHIV RNA copies/ml ([2]; macaque 33996, day 60): 14 copies/ml | SHIV RNA copies/ml ([2]; macaque 33996, day 64): 59 copies/ml | SHIV RNA copies/ml ([2]; macaque 35451, day 14): 32948 copies/ml | SHIV RNA copies/ml ([2]; macaque 35451, day 16): 24534 copies/ml | SHIV RNA copies/ml ([2]; macaque 35451, day 18): 5566 copies/ml | SHIV RNA copies/ml ([2]; macaque 35451, day 22): 189 copies/ml | SHIV RNA copies/ml ([2]; macaque 35451, day 25): 365 copies/ml | SHIV RNA copies/ml ([2]; macaque 35451, day 29): 487 copies/ml | SHIV RNA copies/ml ([2]; macaque 35451, day 32): 189 copies/ml | SHIV RNA copies/ml ([2]; macaque 35451, day 36): 262 copies/ml | SHIV RNA copies/ml ([2]; macaque 35451, day 39): 194 copies/ml | SHIV RNA copies/ml ([2]; macaque 35451, day 43): 240 copies/ml | SHIV RNA copies/ml ([2]; macaque 35451, day 46): 77 copies/ml | SHIV RNA copies/ml ([2]; macaque 35451, day 50): 318 copies/ml | SHIV RNA copies/ml ([2]; macaque 35451, day 53): 134 copies/ml | SHIV RNA copies/ml ([2]; macaque 35451, day 57): 132 copies/ml | SHIV RNA copies/ml ([2]; macaque 35451, day 60): 90 copies/ml | SHIV RNA copies/ml ([2]; macaque 35451, day 64): 800 copies/ml | SHIV RNA copies/ml ([2]; macaque 35451, day 67): 104 copies/ml | SHIV RNA copies/ml ([2]; macaque CH54, day 14): 680147 copies/ml | SHIV RNA copies/ml ([2]; macaque CH54, day 16): 142531 copies/ml | SHIV RNA copies/ml ([2]; macaque CH54, day 18): 87386 copies/ml | SHIV RNA copies/ml ([2]; macaque CH54, day 22): 4318 copies/ml | SHIV RNA copies/ml ([2]; macaque CH54, day 25): 279 copies/ml | SHIV RNA copies/ml ([2]; macaque CH54, day 29): 2506 copies/ml
